Reference: patent US12686668B2, “Leukotriene synthesis inhibitors” (Naegis Pharmaceuticals Inc., priority 2019, dated 2026)
Like-named read-outs stand apart in the source and are kept apart here.

Assays:
[1] = Rat ocular distribution model, retina after topical drop; format: in vivo; conditions: Lewis rats, 10 μL topical drop
Procedure: (§1) Eye drops were prepared by adding compounds at a theoretical concentration of 10 mg/mL to a 2 mL microcentrifuge tube before adding a stir bar and the selected formulation that consisted of (w/v) hydroxypropyl β-cyclodextrin (Trappsol) (20%), hydroxyl propyl methylcellulose (0.5%) and EDTA (1.6 mM) in phosphate buffered saline. Tubes containing compound in eye drop formulation were heated to 60-65° C. and stirred at least 4 hours to overnight. The tubes were removed from the heat bath and centrifuged at 10,000 ref for 5 minutes to clear the solution of any residual drug not in solution. The supernatant was removed from the tubes and one 10 μL sample was removed for HPLC analysis of solubilized by HPLC using an ACE C18 column (4.5 mm×150 mm, 5 m), eluted with acetonitrile/methanol/water mixture with H3PO4, pH 3.5 (50:30:20) with a flow rate of 2.5 mL/min. The solubilized concentration of each compound was calculated by interpolation from a standard curve based on reference standards solubilized in methanol when the assay was validated.
Compounds were applied as a single 10 μL drop to rats and the aqueous humor, and the posterior segment of the eye (vitreous body and retina) were collected from each eye at the time point assigned after the eye was irrigated to remove any residual formulation present. Tissues were collected in pre-weighed collection tubes and the tissue weight was determined for each sample. An internal standard (IS) mixture containing a reference compound at a ratio of 1 μL to 4 mg tissue was added to samples, mixed and then diluted×4.25 in acetonitrile:methanol (9:1). Aqueous humour samples were vortex mixed for 10 s. The vitreous body & retina were vortex mixed 2 times each for 10 s, and further mixed for 6 min on a tabletop shaker at 750 rpm followed by final vortex mixing (10 s). All samples were centrifuged to pellet any particulate matter and the supernatant was transferred to LC vials. A 10 μL sample was then applied to the HPLC during LC/MS/MS analysis. A calibration curve for compounds (0.588-176.471 ng/mL) was prepared in rat plasma to estimate concentrations of compounds in each of the matrices analyzed using the area under curve (AUC) normalized to internal standard AUC for determining response. The assumption was made that 1 mg tissue is equivalent to 1 μL plasma. Concentrations measured in each tissue were then normalized to the amount of drug applied to account for differences in solubilized drug in each formulation. The average concentration and the standard deviation was determined based on “n”=number of eyes assessed, rather than the number of animals. […]

[2] = Solubilized concentration of compound in eye drop formulation (HPLC); format: physicochemical; conditions: eye drop formulation: 20% hydroxypropyl β-cyclodextrin, 0.5% HPMC, 1.6 mM EDTA in PBS
Procedure: as §1
In Table 6, the data from distribution studies performed in Lewis rats show the concentration of each compound present in the retina 0.5 hr after the administration of a 10 μL drop of each topical formation is provided. Compounds were paired and individual formulations mixed at a ratio to make a mixture that contained ~2.5 mg/mL of each compound.

[3] = system: LTC4 production in MC/9 cells; test: MC/9 HPLC assay, inhibition of LTC4 production; format: cell-based; conditions: Mus musculus; for inhibition at 3 µM: MC9, 3 μM, A23187 stimulated
How it was run: (§2)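 MC/9 cells (3×10^6 in HBSS) pre-incubated 30 min with compound, then stimulated 20 min at room temperature with 1 μM A23187. After methanol quench and C18 solid-phase extraction, LTB4 and LTC4 quantified by HPLC against reference standards; inhibition relative to control samples.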

[4] = system: AA-induced ear edema; test: Arachidonic acid (AA) induced mouse ear edema model; format: in vivo, CD-1 mice; conditions: 4 hrs and 1 hr before AA 2 mg/ear, mice; for % Inhibition AA-Induced ear edema (1 mg/ear): topical 1 mg/ear; for % Inhibition AA-Induced ear edema (0.3 mg/ear): topical 0.3 mg/ear
Procedure: One group serves as a control and receives 20 μL of vehicle applied to the pinna of each ear (10 μL to the inside and 10 μL to the outside of the pinna). One or more additional groups serve as test groups. The test compound was applied to the pinna of one ear of the mouse in a 20 μL volume (10 μL to the inside and 10 μL to the outside of the pinna). Test compound or control vehicle (acetone/1% DMSO) was applied topically to the right ear 4 and 1 hour before the application of 2 mg/ear AA as a stimulus to both the inner and outer surfaces of CD-1 mice. The left ears received vehicle (acetone/1% DMSO) alone. The animal was lightly anesthetized again using isofluorane to enable application of the stimulus. For the control group, arachidonic acid (2 mg/ear) was applied as the stimulus to the pinna of one ear only, in a total volume of 20 μL of acetone (10 μL applied to the inside and 10 μL to the outside of the pinna). The other ear received 20 μL of acetone. This served to determine the increase in ear weight due to arachidonic acid in the absence of test compounds. For the test groups, arachidonic acid (2 mg/ear) was applied as the stimulus to the pinna of each ear, in a total volume of 20 μL of acetone (10 μL applied to the inside and 10 μL to the outside of the pinna). The animal was allowed to recover after application of the stimulus in each case. After 60 minutes the animal was euthanized and a standard biopsy sample was taken from each ear using a 6 mm skin biopsy punch (Acuderm). Ear edema was determined by the increase in weight of the tissue due to accumulation of fluid as a result of plasma extravasation. The ears were weighed separately using a balance suitable to record 0.1 mg. For the control group, the difference in ear weights was determined by subtracting the weight of the unstimulated ear from the stimulated ear, and this was a measure of the increase in ear weight due to edema. The percentage increase in ear weight was determined by dividing the increase in stimulated ear weight by the unstimulated ear weight and multiplying by 100. For the test groups, the difference in ear weights was determined by subtracting the weight of the untreated ear from the weight of the ear treated with test compound. The percent inhibition of the increase in ear weight for ears treated with the test compound was estimated by first subtracting the mean ear weight of the untreated controls from each tissue to determine the increase in tissue weight due to application of the arachidonic acid. The percent inhibition=1−(test drug stimulated ear (mg)/control stimulated ear (mg))×100. In Table 5, the data from inhibition of AA-induced ear edema in mice by topical application of compounds is provided. Compounds (0.3 or 1 mg/ear) were applied topically to the ear 4 hrs and 1 hr prior to application of arachidonic acid (AA; 2 mg/ear).

[5] = system: LTB4 production in porcine or human whole blood; test: Whole blood HPLC assay, inhibition of LTB4 production; format: cell-based; conditions: 5 point curve, porcine or human whole blood (not specified)
How it was run: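 Porcine or human whole blood was pre-incubated 30 min with compound, then stimulated 20 min at room temperature with 20 μM A23187 (porcine blood also received 20 μM arachidonic acid). Plasma LTB4 was extracted on C18 and quantified by HPLC against reference standards. IC50 from a 5-point curve, with inhibition relative to controls.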

[6] = system: LTB4 production in MC/9 cells; test: MC/9 HPLC assay, inhibition of LTB4 production; format: cell-based; conditions: Mus musculus
How it was run: as §2

[7] = molecular target: T1, recombinant human leukotriene A4 hydrolase enzyme (Homo sapiens, UniProt P09960); test: Amino-peptidase assay, alanine-4-nitroanalide; format: biochemical; conditions: negative values = augmented peptidase activity, read-out: % Inhibition aminopeptidase-Alanine-4-nitroanalide activity of LTA4H (3 μM)
T1 construct: purchased Cayman Chemical 10007817
T1 sequence (P09960 1-611): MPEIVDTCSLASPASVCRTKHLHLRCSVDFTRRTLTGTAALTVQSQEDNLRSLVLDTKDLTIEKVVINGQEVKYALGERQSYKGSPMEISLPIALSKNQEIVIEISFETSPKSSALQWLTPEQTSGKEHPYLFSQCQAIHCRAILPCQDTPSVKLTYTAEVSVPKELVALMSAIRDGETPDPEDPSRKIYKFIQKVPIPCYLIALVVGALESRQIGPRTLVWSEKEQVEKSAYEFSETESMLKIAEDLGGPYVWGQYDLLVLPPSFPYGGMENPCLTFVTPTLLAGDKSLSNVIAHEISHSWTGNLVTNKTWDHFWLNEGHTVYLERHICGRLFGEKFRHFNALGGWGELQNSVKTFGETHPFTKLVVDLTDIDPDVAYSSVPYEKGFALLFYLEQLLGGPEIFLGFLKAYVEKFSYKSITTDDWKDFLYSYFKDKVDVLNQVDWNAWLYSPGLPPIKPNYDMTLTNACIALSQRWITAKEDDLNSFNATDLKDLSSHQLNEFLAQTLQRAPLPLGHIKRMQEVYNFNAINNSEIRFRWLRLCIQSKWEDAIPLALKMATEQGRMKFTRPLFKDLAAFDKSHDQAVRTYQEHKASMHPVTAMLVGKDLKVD
How it was run: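 Compounds pre-incubated in the dark with recombinant human LTA4H (0.5 μg) in 50 mM Tris-HCl, 100 mM KCl; reaction started with alanine-4-nitroanilide (6 mM solution). Aminopeptidase rate followed as A405 from 4-nitroaniline, referenced to a standard; inhibition calculated versus controls, with negative values indicating augmented activity.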

[8] = system: endogenous leukotriene production; conditions: estimated; cited from earlier work
[9] = MC9, Table 2 column 4, no concentration in head (1 μM according to b732), read-out: % Inhibition LTB4
[10] = MC9, Table 2 column 3, no concentration in head (1 μM according to b732), read-out: % Inhibition LTC4

SMILES	Concentration of compound in formulation [2]	IC50 [5]	inhibition at 3 µM [7]	Concentration of compound in retina 0.5 hr after administration per mg compound applied (Avg ± SD) n = 2 [1]	inhibition at 3 µM [3]	% Inhibition AA-Induced ear edema (1 mg/ear) [4]	inhibition at 1 µM [6, 9]	inhibition at 1 µM [3, 10]	% Inhibition AA-Induced ear edema (0.3 mg/ear) [4]	inhibition at 1 µM ([6]; MC9, 1 μM, read-out: % inhibition LTB4 (1 μM))	inhibition at 1 µM ([3]; MC9, 1 μM, read-out: % inhibition LTC4 (1 μM))	Inhibition of endogenous leukotriene production [8]
CCC(O)(CCc1ccc(Oc2nc3ccccc3s2)c(OC)c1)C(F)(F)F (centres unmarked) [Compound 103, 1-[4-(1,3-benzothiazol-2-yloxy)-3-methoxyphenyl]-3-(trifluoromethyl)pentan-3-ol]	–	1000 to 10000 nM	–	–	> 90%	70-90%	50 to 70%	50 to 70%	30-50%	50 to 70%	50 to 70%	–
CCC(O)CCc1ccc(Oc2nc3c(SC)cccc3s2)c(OC)c1 (centres unmarked) [Compound 193, 1-(3-methoxy-4-{[4-(methylsulfanyl)-1,3-benzothiazol-2-yl]oxy}phenyl)pentan-3-ol]	2530 µg/mL	–	–	15690 ± 9863 ng/mL per mg compound applied	70 to 90%	–	> 90%	> 90%	–	–	–	–
CCC(O)(CCc1ccc(Oc2nc3ccc(F)cc3s2)c(OC)c1)C(F)(F)F (centres unmarked) [Compound 108, 1-{4-[(6-fluoro-1,3-benzothiazol-2-yl)oxy]-3-methoxyphenyl}-3-(trifluoromethyl)pentan-3-ol]	–	1000 to 10000 nM	–	–	50 to 70%	30-50%	> 90%	70 to 90%	<10%	–	–	–
CC(c1cc2ccccc2s1)N(O)C(N)=O (centres unmarked) [Zileuton]	–	–	–	–	–	–	–	–	–	–	–	26-86%

The next lines start with results.

Concentration of compound in formulation [2]	IC50 [5]	inhibition at 3 µM [7]	SMILES	Concentration of compound in retina 0.5 hr after administration per mg compound applied (Avg ± SD) n = 2 [1]	inhibition at 3 µM [3]	% Inhibition AA-Induced ear edema (1 mg/ear) [4]	inhibition at 1 µM [6, 9]	inhibition at 1 µM [3, 10]	% Inhibition AA-Induced ear edema (0.3 mg/ear) [4]	inhibition at 1 µM ([6]; MC9, 1 μM, read-out: % inhibition LTB4 (1 μM))	inhibition at 1 µM ([3]; MC9, 1 μM, read-out: % inhibition LTC4 (1 μM))	Inhibition of endogenous leukotriene production [8]
1650 µg/mL	–	–	CCC(C)(O)CCc1ccc(Oc2nc3c(SC)cccc3s2)c(OC)c1 (centres unmarked) [Compound 191, 1-(3-methoxy-4-{[4-(methylsulfanyl)-1,3-benzothiazol-2-yl]oxy}phenyl)pentan-3-methyl-3-ol]	4872 ± 1672 ng/mL per mg compound applied	> 90%	–	–	–	–	–	–	–
–	100 to 1000 nM	50 to 75%	CCC(CCc1ccc(Oc2nc3ccccc3s2)cc1)N1CCCC1 (centres unmarked) [Compound 158, 2-{4-[3-(pyrrolidin-1-yl)pentyl]phenoxy}-1,3-benzothiazole]	–	< 10%	10-30%	> 90%	10 to 30%	–	–	–	–
3640 µg/mL	–	–	CCC(O)(CCc1ccc(Oc2nc3c(SC)cccc3s2)cc1)C(F)(F)F (centres unmarked) [Compound 195, 1-(4-{[4-(methylsulfanyl)-1,3-benzothiazol-2-yl]oxy}phenyl)-3-(trifluoromethyl)pentan-3-ol]	3343 ± 2.4 ng/mL per mg compound applied	> 90%	–	–	–	–	–	–	–
–	1000 to 10000 nM	–	COc1cc(CCC(C)(O)C(F)(F)F)ccc1Oc1nc2c(SC)cccc2s1 (centres unmarked) [Compound 119, 1,1,1-trifluoro-4-(3-methoxy-4-{[4-(methylsulfanyl)-1,3-benzothiazol-2-yl]oxy}phenyl)-2-methylbutan-2-ol]	–	> 90%	50-70%	> 90%	> 90%	30-50%	–	–	–
